Measured values published in US7537803B2, “Polymer coating/encapsulation of nanoparticles using a supercritical antisolvent process” (New Jersey Institute of Technology, priority 2003, dated 2009).

Test: Dissolution of hydrocortisone in DCM of the coating suspension
Type: physicochemical
Settings: suspension in PLGA/dichloromethane for SAS coating
Text: An exemplary processing protocol according to the present disclosure is as follows. The precipitation chamber is first charged with SC CO2. After the predetermined operating conditions (temperature and pressure) are reached, a steady flow of CO2 is established by adjusting the metering valve and the metering pump. The flow rate of CO2 was usually less than 3.0 standard liters per minute (SLPM). PLGA and hydrocortisone (HC) are then weighed and mixed into dichloromethane (DCM) to produce a suspension with the desired polymer concentration and PLGA to HC ratio. The suspension-so-produced is then injected at a flow rate of 0.8 ml/min into the high pressure chamber through the capillary nozzle by using an HPLC pump (Beckman, 110B) for about 10 minutes. After spraying, fresh CO2 is supplied continuously to purge the chamber with about 1 equivalent volume of CO2 in order to remove any remaining dichloromethane. After purging, the precipitation chamber is slowly depressurized and the coated drug particles collected for characterization.
Initially, reference is made to FIG. 18 wherein SEM images of the untreated hydrocortisone particles employed in the experimental studies are shown. Hydrocortisone is seen to be in crystal form with defined facets and sharp edges. […] The coated particles have a different shape (morphology) and no clear sharp edges when compared with the uncoated drug particles. […]

C[C@]12CCC(=O)C=C1CC[C@@H]1[C@@H]2[C@@H](O)C[C@@]2(C)[C@H]1CC[C@]2(O)C(=O)CO [hydrocortisone, Hydrocortisone]
hydrocortisone dissolved in DCM, share of the total: about 17%
